Assay results as given in ChEMBL document CHEMBL3988442, “University of Dundee, Small-Polar-MMV Screening Library” (2021).

Key:
[1] = microbe, parasite or virus in culture; details: Mycobacterium tuberculosis, 96 h, read-out: pIC50 (converted)
[2] = microbe, parasite or virus in culture; details: Mycobacterium tuberculosis, 72 h, read-out: pIC50 (converted)
ClpP1P2 = ClpP1P2 (Mycobacterium tuberculosis (strain ATCC 25618 / H37Rv), UniProt P9WPC3+P9WPC5); test: in vitro assay to detect presence of AMC directly proportional to the activity of ClpP1P2. GHDDI collaboration.; assay type: functional
Chain of ClpP1P2 (P9WPC5 whole entry): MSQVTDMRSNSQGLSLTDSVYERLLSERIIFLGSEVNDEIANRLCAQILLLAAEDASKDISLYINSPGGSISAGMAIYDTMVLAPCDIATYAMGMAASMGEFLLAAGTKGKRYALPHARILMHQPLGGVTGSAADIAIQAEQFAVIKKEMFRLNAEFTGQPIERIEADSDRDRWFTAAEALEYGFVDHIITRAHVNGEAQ
Chain of ClpP1P2 (P9WPC3 whole entry): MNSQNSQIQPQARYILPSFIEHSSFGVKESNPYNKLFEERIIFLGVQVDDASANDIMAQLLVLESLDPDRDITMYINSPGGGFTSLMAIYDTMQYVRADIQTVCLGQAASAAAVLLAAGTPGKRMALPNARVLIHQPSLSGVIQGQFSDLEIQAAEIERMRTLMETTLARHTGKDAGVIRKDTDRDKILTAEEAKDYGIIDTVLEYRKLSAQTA

Compound	IC50 [1]	IC50 [2]	IC50 (ClpP1P2)
OCC1(CC2CCCCO2)CCN(c2cnc3ccccc3n2)CC1 (stereo not given)	10.7 µM	13.4 µM	> 100 µM
CC(C)OCc1ccc(CNc2cncc(-n3cccn3)n2)cc1	17 µM	> 50.1 µM	> 100 µM
Cc1cc2nc(C(C)C)cc(N(C)CC3CCN(C(C)C)C3)n2n1 (stereo not given)	> 50.1 µM	> 50.1 µM	> 100 µM
COC(=O)CNC(=O)c1cn(-c2ccccn2)c(=O)c2ccccc12	> 50.1 µM	> 50.1 µM	> 100 µM
CC(C)n1ccc(-c2cc(C(=O)NC3CC3)c3ccccn23)n1	14 µM	16.5 µM	> 100 µM
O=C(O)C1(O)CCN(c2ccc3cccc(Cl)c3n2)CC1	–	–	> 100 µM
CCOC(=O)CN(CC(F)(F)F)C(=O)c1nc(C)n2ccccc12	–	–	> 100 µM
CCOc1ccc2[nH]c(=O)c(CN3CCC(n4cnnc4)CC3)cc2c1	–	–	> 100 µM
Cc1cnn(CC2CN(Cc3nc4ccccc4o3)CCO2)c1 (stereo not given)	–	–	> 100 µM
O=C(c1cnn2c(-c3ccco3)ccnc12)N1CCCCCC1	–	–	> 100 µM
COc1cccc(-c2cc(NCCN(C)C)nc3[nH]ccc23)n1	–	–	> 100 µM
Cc1ccc(C#N)c(N2CCC3(CCCN(C4CCOCC4)C3=O)C2)n1 (stereo not given)	–	–	> 100 µM
O=C(NCC1CC1)c1c2c(N3CCCC3)ncnc2n2ccccc12	–	–	> 100 µM
COc1cc(OC)c2nc(NCCN3CCNC3=O)cc(C)c2c1	–	–	> 100 µM
Cn1ccc2c(-c3nccc(N)n3)ccnc21	–	–	> 100 µM
CC(Nc1ncnc2c1NC(=O)CN2)c1ccccn1 (stereo not given)	–	–	> 100 µM
CNC(=O)c1cc2c(nc1NCC(C)C)CCN(S(=O)(=O)C1CC1)CC2	–	–	> 100 µM
CCCc1nc(CNCC2CCCN2c2cccnn2)no1 (stereo not given)	–	–	> 100 µM
CC(=O)Nc1ccc2nc(CN(C)Cc3noc(C)n3)ccc2c1	–	–	> 100 µM
CCNC(=O)C1CCCN(c2ccc3ccc(F)cc3n2)C1 (stereo not given)	–	–	> 100 µM
CCc1nccn1-c1cccc(C2CCCN2)n1 (stereo not given)	–	–	> 100 µM
CCN1CCCC1CNCc1cc2cc(OC)c(OC)cc2[nH]c1=O (stereo not given)	–	–	> 100 µM
CNC(=O)c1cnn2c(C3CCCN3)ccnc12 (stereo not given)	–	–	> 100 µM
c1ccc2nc(N3CCOC(Cn4cncn4)C3)cnc2c1 (stereo not given)	–	–	> 100 µM

Compound	IC50 [1]	IC50 [2]	IC50 (ClpP1P2)
Cc1nc(-c2cc(C(=O)NCCN3CCOCC3)c3ccccn23)cs1	–	–	> 100 µM
CN(C(=O)CCc1nc(C2CC2)no1)c1cc(C#N)c2ccccc2n1	–	–	> 100 µM
CC(=O)N1CCC(CCc2ccnc(NC(=O)c3ccccn3)c2)CC1	–	–	> 100 µM
Cc1cc(C)n(CCNc2ncnc3c2NC(=O)CN3)n1	–	–	> 100 µM
Cc1nc(N2CCCC2C(=O)NCc2ccsc2)nc2ccccc12 (stereo not given)	–	–	> 100 µM
COc1ccc2nc(O)c(CN(C)Cc3ncc[nH]3)cc2c1	–	–	> 100 µM
CN(C)c1ncc(-c2cc(C(=O)NC(C)(C)CO)n(CC3CC3)c2)cn1	–	–	> 100 µM
CNc1cncc(C2CCCN2C(=O)Cn2ccnc2C)n1 (stereo not given)	–	–	> 100 µM
Cc1nc(N2CCCC2C(=O)NC(C)(C)CO)nc2ccccc12 (stereo not given)	–	–	> 100 µM
CCOC1CCN(C(=O)CN(C)c2cnccn2)CC1	–	–	> 100 µM
O=C(NCc1nc2cc(F)ccc2[nH]1)c1ccc[nH]1	–	–	> 100 µM
O[C@@H]1CN(c2cnc3ccccc3n2)CC[C@H]1c1ccc2c(c1)OCO2	2.21 µM	3.18 µM	> 100 µM
CN(Cc1ccsc1)C(=O)Nc1ccc(N(C)C)nc1	–	–	> 100 µM
Cn1c(CS(=O)(=O)c2ccc(Cl)cc2)cc(=O)n(C)c1=O	–	–	> 100 µM
CC(Cn1cccn1)Nc1cnc2ccccc2n1 (stereo not given)	–	–	> 100 µM
COC(=O)c1cc(OC)ccc1NCC(=O)NCC(=O)N1CCCC1	–	–	> 100 µM
Cc1nnc(C2Cc3ccccc3CN2Cc2c(C)noc2C)o1 (stereo not given)	–	–	> 100 µM
COc1ccc2c(c1)C(=O)N(C)C1(CCN(C(=O)OC(C)(C)C)CC1)N2	–	–	> 100 µM
CCC(C)(C)NC(=O)c1ccc(-c2ccco2)[nH]c1=O	–	–	> 100 µM
CC(=O)N1CCc2[nH]cnc2C1C1=CCCN(CCn2cccc2)C1 (stereo not given)	–	–	> 100 µM
CC(C)Oc1ccc(C(=O)N2CCC(Nc3cccnn3)CC2)cn1	–	–	> 100 µM
CCNc1cc2c(nn1)CCN(C(=O)c1ccoc1)C2	–	–	> 100 µM
c1ccc(O[C@H]2C[C@@H]3CN(Cc4cnccn4)C[C@@H]3C2)cc1	–	–	> 100 µM
CCCn1nc2c(cc1=O)CN(CC(=O)N(C)c1nccs1)CC2	–	–	> 100 µM

Compound	IC50 [1]	IC50 [2]	IC50 (ClpP1P2)
Nc1ncc(-c2ccc(Cl)cc2)c(C2CCCNC2)n1 (stereo not given)	–	–	> 100 µM
CC(C)c1nnc2n1CCN(C(=O)Cc1csc(C(C)(C)C)n1)C2	–	–	> 100 µM
Cc1cnc(CCNc2cccc(CC3CCCNC3)n2)s1 (stereo not given)	–	–	> 100 µM
c1cc(CN2CCC(c3ccnc4nccn34)C2)ccn1 (stereo not given)	–	–	> 100 µM
CNC(=O)c1cc(C)ccc1NCc1cn2cc(C)ccc2n1	–	–	> 100 µM
Nc1nccnc1C(=O)NC1CCN(Cc2ccccc2)C1 (stereo not given)	–	–	> 100 µM
CNC(=O)CNC(=O)c1ccc(-c2scnc2C)nc1	–	–	> 100 µM
CC(C)c1nc(CN(C)C2CCN(CCc3ccncc3)C2)no1 (stereo not given)	–	–	> 100 µM
O=C(NCc1nn(-c2ccccc2)c2c1CCC2)NCC1COCCO1 (stereo not given)	–	–	> 100 µM
c1ccc2nc(N3CCCC3c3nnc4n3CCCCC4)cnc2c1 (stereo not given)	–	–	> 100 µM
CC(C)[C@H](Nc1cc(-c2ccncc2)nc2ccnn12)C(N)=O	–	–	> 100 µM
CCOC(=O)C1(Cc2cccc(OC)c2)CCN(Cc2ncc[nH]2)CC1	–	–	> 100 µM
COc1cccc(C(C)Nc2ncnc3c2NC(=O)CN3)c1 (stereo not given)	> 50.1 µM	> 50.1 µM	> 100 µM
Cc1n[nH]c(=O)c2c(NC(=O)CN3CCC(O)CC3)oc(C)c12	–	–	> 100 µM
CN(C)C1CCN(c2cc(-c3ccccc3)nc3ccnn23)C1 (stereo not given)	–	–	> 100 µM
COCCCN1C(=O)CC[C@H]2CN(c3cnc4ccccc4n3)CC[C@H]21	–	–	> 100 µM
CC(Cn1cccn1)NC(=O)N1CCN(Cc2ccsc2)CC1 (stereo not given)	–	–	> 100 µM
Cn1cc(CCC(=O)N2CCCN(c3ncccc3C#N)CC2)cn1	–	–	> 100 µM
CC(C)C1CN(c2cccc(C#N)n2)CCCN1CC1CC1 (stereo not given)	–	–	> 100 µM
O=C(NCCCn1cncn1)c1ccc(-c2ccco2)[nH]c1=O	–	–	> 100 µM
CN(Cc1cccc(C(N)=O)c1)CC1CCCN1c1cccnn1 (stereo not given)	–	–	> 100 µM
O=C1CN(c2cc(-c3ccccc3F)nc3ccnn23)CCCN1	–	–	> 100 µM
O=C1CCCN1Cc1nnc2n1CCCN(C(=O)c1ccco1)C2	–	–	> 100 µM
CCOC(=O)Cn1nnnc1-c1ccccc1	–	–	> 100 µM

Compound	IC50 [1]	IC50 [2]	IC50 (ClpP1P2)
CN(C)C1CCN(C(=O)Cc2csc(-c3ncccn3)n2)CC1	–	–	> 100 µM
CN(Cc1noc(C2CC2)n1)C1CCN(Cc2ccccc2C#N)C1 (stereo not given)	–	–	> 100 µM
Cc1ncc2c(n1)CN(Cc1nc(Cc3ccccc3)no1)CC2	–	–	> 100 µM
CCNc1cc2c(nn1)CCN(C(=O)c1nccnc1N)C2	–	–	> 100 µM
CN(Cc1ccccc1C#N)C1CCN(CCc2ccccn2)CC1	–	–	> 100 µM
N#Cc1cccc(N2CCCC3(CCC(=O)N(C4CCCC4)C3)C2)n1 (stereo not given)	–	–	> 100 µM
CC(C(=O)N1CCCN(c2ccccc2C#N)CC1)n1cccn1 (stereo not given)	–	–	> 100 µM
O=C(c1nc(=O)[nH]c2ccccc12)N1CCCC(CC2CC2)(C(=O)O)C1 (stereo not given)	–	–	> 100 µM
CC1CCN(C(=O)c2cnn3c(-c4ccco4)ccnc23)CC1	–	–	> 100 µM
Cc1cnn(CC2CN(Cc3nc(C)c4ccccc4n3)CCO2)c1 (stereo not given)	–	–	> 100 µM
COC(=O)N1CCC(Nc2ccc(Cl)c(C#N)n2)CC1	–	–	> 100 µM
CC(C)n1cnc(-c2nc(C(=O)N3CCN(C)CC3)c3ccccn23)c1	–	–	> 100 µM
N#Cc1cccnc1N1CCC(OCc2ccccc2)CC1	–	–	> 100 µM
O=C(NCCC(=O)N1CCCc2ccccc21)c1c(F)cccc1F	–	–	> 100 µM
COCCNc1ncc(-c2cccc(OC)c2)c(-c2nccn2C)n1	–	–	> 100 µM
N#Cc1c(C2CC2)cc(-c2ccc(O)cc2)nc1N	–	–	> 100 µM
CN1CCN(c2nc(O)c3c(-c4ccccn4)ccnc3n2)CC1	–	–	> 100 µM
CCCOc1ccc(CNc2cncc(-n3cccn3)n2)cc1	–	–	> 100 µM
CNc1cncc(C2CCCN2C(=O)CCn2ccnc2C(C)C)n1 (stereo not given)	–	–	> 100 µM
O=C(Cn1cccc2cc(-c3ccc(F)cc3)nc1-2)N1CCC(O)CC1	–	–	> 100 µM
CC(Cn1cccn1)NC(=O)NCc1ccoc1 (stereo not given)	–	–	> 100 µM
CNc1cc(C(=O)NCCC2=CSC3=NCCCN23)ccn1	–	–	> 100 µM
Cc1cn2c(=O)c(-c3ccnc(N[C@@H](C)CO)n3)cnc2s1	–	–	> 100 µM
Cc1cc(C)n(-c2cncc(NCCNC(=O)C(C)(C)C)n2)n1	–	–	> 100 µM

Compound	IC50 [1]	IC50 [2]	IC50 (ClpP1P2)
CCS(=O)(=O)N1CCc2cc(C(=O)NC)c(NCC3CC3)nc2CC1	–	–	> 100 µM
Cc1cc(C)n(-c2cncc(NCCNC(=O)C(C)C)n2)n1	–	–	> 100 µM
CS(=O)(=O)NC1CCN(C(=O)NCc2ccccn2)CC1	–	–	> 100 µM
CNc1cncc(C2CCN(C(=O)c3coc(C)n3)CC2)n1	–	–	> 100 µM
CCOCC1CN(c2ccncn2)Cc2cnn(CC)c21 (stereo not given)	–	–	> 100 µM
Cc1nn(C)c(C)c1C1CCCN1C(=O)c1nccnc1N (stereo not given)	–	–	> 100 µM
COCCn1cnc(-c2cc(C(=O)NC(C)C)c3ccccn23)c1	–	–	> 100 µM
Cc1nn(C)c(C)c1C1CCCN1C(=O)c1ccnc(N(C)C)c1 (stereo not given)	–	–	> 100 µM
O=C(NCCOC1CCCC1)c1ccc(-c2ccco2)[nH]c1=O	–	–	> 100 µM
CCC(=O)N1CCCN(c2cncc(-n3nc(C)cc3C)n2)CC1	–	–	> 100 µM
c1ccc(CN2CCc3ncnc(-c4ccoc4)c3CC2)nc1	–	–	> 100 µM
CCOC(=O)CN1CCC2(CC1)CC(=O)c1ccc3ccccc3c1O2	–	–	> 100 µM
O=C(c1c2c(N3CCOCC3)ncnc2n2ccccc12)N1CCCC1	–	–	> 100 µM
COCCN1CCc2cc(C(=O)NC(C)C)c(NCC3CC3)nc2CC1	–	–	> 100 µM
N#Cc1cc2cc(Cl)cnc2nc1O	–	–	> 100 µM
N#Cc1cccnc1N1CCCN(C(=O)CCn2cncn2)CC1	–	–	> 100 µM
COc1ccc2c(c1)C(=O)N(C)C1(CCN(CC=C(C)C)CC1)N2	–	–	> 100 µM
Cc1nc(C(=O)N(CC(=O)N(C)C)CC(F)(F)F)c2ccccn12	–	–	> 100 µM
CNc1cnc(CC2COCCN(Cc3ccccc3)C2)cn1 (stereo not given)	–	–	> 100 µM
CN(C)C(=O)CN1C[C@@H]2CC[C@H](C1)N(Cc1ccc(Cl)cc1Cl)C2	–	–	> 100 µM
